From ChEMBL document CHEMBL3616421, “Discovery of novel isatin-dehydroepiandrosterone conjugates as potential anticancer agents” (Bioorg Med Chem Lett, 2015) come the findings set out here.

Molecules are shown by their SMILES. Activity calls are given as the source filed them. No cut-off for these calls is given here.

Common to all, as to assay type: functional, cell-based
A short description of test [1]: (§1) Cytotoxicity against human A875 cells assessed as growth inhibition after 72 hrs by MTT assay. As to conditions: A875, 72 h. A general note: Tetrazolium dyes change colour on reduction, which living cells bring about.
The test system of test [2] is A875. The description is as §1.
The subject of test [3] is HepG2. Nature of the test: Cytotoxicity against human HepG2 cells assessed as growth inhibition after 72 hrs by MTT assay. To be noted: for IC50: HepG2, 72 h.
Test [4] in a line: Cytotoxicity against 5-fluorouracil-resistant human Bel7402 cells assessed as growth inhibition after 72 hrs by MTT assay. To be noted: Bel-7402, 72 h.
Test [5] relates to Huh-7. Briefly: (§2) Cytotoxicity against human HuH7 cells assessed as growth inhibition after 72 hrs by MTT assay.
The nature of test [6]: as §2. To be noted: Huh-7, 72 h.
The test system of test [7] is HepG2. Briefly: Cytotoxicity against human HepG2 cells assessed as decrease in cell level at 10 ug/ml after 48 hrs by inverted microscopic analysis.
The subject of test [8] is HepG2. Briefly: Cytotoxicity against human HepG2 cells assessed as cell shrinkage at 10 ug/ml after 48 hrs by inverted microscopic analysis.

For orientation: IC50 means the concentration that inhibits the measured activity by half.

Take `O=c1[nH]cc(F)c(=O)[nH]1` [FLUOROURACIL]: the IC50 in test [1] is greater than 150 µM; in test [3], greater than 150 µM; in test [4] it was greater than 700 µM; in test [6], greater than 100 µM. Further, the “growth inhibition (GI)” value in test [2], in test [3] and in test [5] was “Dose-dependent effect” each time.

Turning to `C[C@]12CC[C@H](O)CC1=CC[C@@H]1[C@@H]2CC[C@]2(C)/C(=N/Nc3ncccc3Cl)CC[C@@H]12`, the IC50 in test [1], in test [3] and in test [6] was greater than 90 µM each time.

Consider `C[C@]12CC[C@H](O)CC1=CC[C@@H]1[C@@H]2CC[C@]2(C)/C(=N/N=C3\C(=O)Nc4ccccc43)CC[C@@H]12`, for which the outcome in test [7] and in test [8] was Active. For the same compound, the IC50 was 25.2 µM in test [1], 13.3 µM in test [3], 21.8 µM in test [4] and 28.2 µM in test [6]. Moreover, the “growth inhibition (GI)” value in test [2], in test [3] and in test [5] was “Dose-dependent effect” in each case.

As to `C[C@]12CC[C@H](O)CC1=CC[C@@H]1[C@@H]2CC[C@]2(C)/C(=N/N=C3\C(=O)Nc4ccc(Br)cc43)CC[C@@H]12`, the outcome in test [7] and in test [8] was Active. The half-maximal inhibitory concentration (IC50) in test [1] is 14.8 µM; in test [3], 16.2 µM; in test [4], 5.97 µM; in test [6], 13.9 µM. Besides, the “growth inhibition (GI)” value in test [2], in test [3] and in test [5] was “Dose-dependent effect” in each case.

For `CC(C)c1ccc(/N=C2\CC[C@H]3[C@@H]4CC=C5C[C@@H](O)CC[C@]5(C)[C@H]4CC[C@]23C)cc1`, the IC50 is 61.5 µM in test [1], 44.3 µM in test [3], greater than 90 µM in test [4] and greater than 90 µM in test [6].

For the compound `C[C@]12CC[C@H](O)CC1=CC[C@@H]1[C@@H]2CC[C@]2(C)/C(=N/c3ccccc3)CC[C@@H]12`, the IC50 in test [1] was 82.7 µM; in test [3], 63.5 µM; in test [4], greater than 100 µM; in test [6], greater than 100 µM.

Consider `C[C@]12CC[C@H](O)CC1=CC[C@@H]1[C@@H]2CC[C@]2(C)/C(=N/Nc3ccccc3)CC[C@@H]12`, for which the IC50 is greater than 100 µM in test [1], 43.1 µM in test [3], 29.9 µM in test [4] and 55.4 µM in test [6].

Consider `C[C@]12CC[C@H](O)CC1=CC[C@@H]1[C@@H]2CC[C@]2(C)/C(=N/N=C3\C(=O)Nc4cc(F)ccc43)CC[C@@H]12`, for which the half-maximal inhibitory concentration (IC50) in test [1] is 29.6 µM; in test [3], 19.7 µM; in test [4] it was 12.8 µM; in test [6], 22.3 µM. Further, the “growth inhibition (GI)” value in test [2], in test [3] and in test [5] was “Dose-dependent effect” each time.

Turning to `C[C@]12CC[C@H](O)CC1=CC[C@@H]1[C@@H]2CC[C@]2(C)/C(=N/Cc3ccccc3)CC[C@@H]12`, the IC50 in test [1] is 42.5 µM; in test [3], 32.6 µM; in test [4] it was greater than 100 µM; in test [6], greater than 100 µM.

As for `C[C@]12CC[C@H](O)CC1=CC[C@@H]1[C@@H]2CC[C@]2(C)/C(=N/N=C3\C(=O)Nc4ccc(I)cc43)CC[C@@H]12`, the IC50 is 43.7 µM in test [1], 22.5 µM in test [3], 14.1 µM in test [4] and greater than 70 µM in test [6].

In the case of `C[C@]12CC[C@H](O)CC1=CC[C@@H]1[C@@H]2CC[C@]2(C)/C(=N/N=C3\C(=O)Nc4ccc([N+](=O)[O-])cc43)CC[C@@H]12`, the IC50 amounted to 69 µM in test [1], 27.4 µM in test [3], 10.1 µM in test [4] and 30.6 µM in test [6].
